According to patent US10597388B2, “Pyridazinone herbicides” (FMC CORPORATION, priority 2014, dated 2020):

Columns and labels:
Test in all cases: Test C greenhouse herbicide test, pre- and postemergence
Assay type in all cases: in vivo
[1] = tested on: barnyardgrass (Echinochloa crus-galli)
Method in brief: (§1)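 Seeds sown in loam–sand blend treated preemergence; plants in peat-based medium sprayed postemergence at 2–18 cm (1- to 4-leaf stage); chemicals in non-phytotoxic solvent with surfactant. Greenhouse 13–15 d, then visual rating versus controls on 0–100 scale (0 no effect, 100 complete control).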

[2] = tested on: blackgrass (Alopecurus myosuroides)
Method in brief: as §1

corn (Zea mays) = tested on: corn (Zea mays)
Method in brief: as §1

[3] = tested on: crabgrass, large (large crabgrass, Digitaria sanguinalis)
Method in brief: as §1

[4] = tested on: foxtail, giant (giant foxtail, Setaria faberii)
Method in brief: as §1

[5] = tested on: galium (catchweed bedstraw, Galium aparine)
Method in brief: as §1

[6] = tested on: lambsquarters (Chenopodium album)
Method in brief: as §1

[7] = tested on: morningglory (Ipomoea coccinea)
Method in brief: as §1

[8] = tested on: nutsedge, yellow (yellow nutsedge, Cyperus esculentus)
Method in brief: as §1

[9] = tested on: oilseed rape (Brassica napus)
Method in brief: as §1

[10] = tested on: ragweed (common ragweed, Ambrosia elatior)
Method in brief: as §1

[11] = tested on: ryegrass, Italian (Italian ryegrass, Lolium multiflorum)
Method in brief: as §1

soybean (Glycine max) = tested on: soybean (Glycine max)
Method in brief: as §1

[12] = tested on: velvetleaf (Abutilon theophrasti)
Method in brief: as §1

[13] = tested on: waterhemp (common waterhemp, Amaranthus rudis)
Method in brief: as §1

[14] = Postemergence, 31 g ai/ha, 0 to 100 scale (0 no effect, 100 complete control)
[15] = Postemergence, 125 g ai/ha, scale 0 to 100, 0 is no effect, 100 is complete control
[16] = Postemergence, 250 g ai/ha, scale 0 to 100, 0 no effect, 100 complete control, 13 to 15 d
[17] = Preemergence, 31 g ai/ha, scale 0 to 100, 0 is no effect, 100 is complete control
[18] = Preemergence, 62 g ai/ha, scale 0 to 100, 0 is no effect, 100 is complete control
[19] = Preemergence, 125 g ai/ha, scale 0 to 100, 0 is no effect, 100 is complete control
[20] = Preemergence, 250 g ai/ha, scale 0 to 100, 0 no effect, 100 complete control
[21] = postemergence, 62 g ai/ha, scale 0 to 100, 0 no effect, 100 complete control

SMILES: Cc1ccc2sc(C)c(-c3c(OC(=O)OC(C)C)c(C)nn(C)c3=O)c2c1 [Compound 66]
- Barnyardgrass plant response rating [1, 14]: 15
- Plant response rating, Barnyardgrass [1, 15]: 30
- Plant response rating, Barnyardgrass [1, 16]: 35
- Plant response rating, Barnyardgrass [1, 17]: 0
- Plant response rating, Barnyardgrass [1, 18]: 20
- Plant response rating, Barnyardgrass [1, 19]: 40
- Barnyardgrass plant response rating [1, 20]: 70
- Barnyardgrass plant response rating [1, 21]: 20
- Blackgrass plant response rating [2, 14]: 10
- Plant response rating, Blackgrass [2, 15]: 40
- Plant response rating, Blackgrass [2, 16]: 60
- Plant response rating, Blackgrass [2, 17]: 10
- Plant response rating, Blackgrass [2, 18]: 30
- Plant response rating, Blackgrass [2, 19]: 35
- Blackgrass plant response rating [2, 20]: 30
- Blackgrass plant response rating [2, 21]: 15
- Corn plant response rating (corn (Zea mays); [14]): 0
- Plant response rating, Corn (corn (Zea mays); [15]): 5
- Plant response rating, Corn (corn (Zea mays); [16]): 25
- Plant response rating, Corn (corn (Zea mays); [17]): 0
- Plant response rating, Corn (corn (Zea mays); [18]): 0
- Plant response rating, Corn (corn (Zea mays); [19]): 0
- Corn plant response rating (corn (Zea mays); [20]): 0
- Corn plant response rating (corn (Zea mays); [21]): 0
- Crabgrass, Large plant response rating [3, 14]: 25
- Plant response rating, Crabgrass, Large [3, 15]: 35
- Plant response rating, Crabgrass, Large [3, 16]: 45
- Plant response rating, Crabgrass, Large [3, 17]: 75
- Plant response rating, Crabgrass, Large [3, 18]: 65
- Plant response rating, Crabgrass, Large [3, 19]: 75
- Crabgrass, Large plant response rating [3, 20]: 85
- Crabgrass, Large plant response rating [3, 21]: 30
- Foxtail, Giant plant response rating [4, 14]: 40
- Plant response rating, Foxtail, Giant [4, 15]: 65
- Plant response rating, Foxtail, Giant [4, 16]: 80
- Plant response rating, Foxtail, Giant [4, 17]: 70
- Plant response rating, Foxtail, Giant [4, 18]: 75
- Plant response rating, Foxtail, Giant [4, 19]: 80
- Foxtail, Giant plant response rating [4, 20]: 85
- Foxtail, Giant plant response rating [4, 21]: 55
- Galium plant response rating [5, 14]: 90
- Plant response rating, Galium [5, 15]: 95
- Plant response rating, Galium [5, 16]: 95
- Plant response rating, Galium [5, 17]: 90
- Plant response rating, Galium [5, 18]: 90
- Plant response rating, Galium [5, 19]: 95
- Galium plant response rating [5, 20]: 98
- Galium plant response rating [5, 21]: 95
- Lambsquarters plant response rating [6, 14]: 90
- Plant response rating, Lambsquarters [6, 15]: 100
- Plant response rating, Lambsquarters [6, 16]: 100
- Plant response rating, Lambsquarters [6, 17]: 80
- Plant response rating, Lambsquarters [6, 18]: 85
- Plant response rating, Lambsquarters [6, 19]: 85
- Lambsquarters plant response rating [6, 20]: 98
- Lambsquarters plant response rating [6, 21]: 100
- Morningglory plant response rating [7, 14]: 90
- Plant response rating, Morningglory [7, 15]: 100
- Plant response rating, Morningglory [7, 16]: 100
- Plant response rating, Morningglory [7, 17]: 80
- Plant response rating, Morningglory [7, 18]: 85
- Plant response rating, Morningglory [7, 19]: 80
- Morningglory plant response rating [7, 20]: 90
- Morningglory plant response rating [7, 21]: 95
- Nutsedge, Yellow plant response rating [8, 14]: 65
- Plant response rating, Nutsedge, Yellow [8, 15]: 85
- Plant response rating, Nutsedge, Yellow [8, 16]: 85
- Plant response rating, Nutsedge, Yellow [8, 17]: 35
- Plant response rating, Nutsedge, Yellow [8, 18]: 35
- Plant response rating, Nutsedge, Yellow [8, 19]: 30
- Nutsedge, Yellow plant response rating [8, 20]: 65
- Nutsedge, Yellow plant response rating [8, 21]: 70
- Oilseed Rape plant response rating [9, 14]: 0
- Plant response rating, Oilseed Rape [9, 15]: 10
- Plant response rating, Oilseed Rape [9, 16]: 0
- Plant response rating, Oilseed Rape [9, 17]: 0
- Plant response rating, Oilseed Rape [9, 18]: 0
- Plant response rating, Oilseed Rape [9, 19]: 0
- Oilseed Rape plant response rating [9, 20]: 5
- Oilseed Rape plant response rating [9, 21]: 10
- Ragweed plant response rating [10, 14]: 85
- Plant response rating, Ragweed [10, 15]: 90
- Plant response rating, Ragweed [10, 16]: 100
- Plant response rating, Ragweed [10, 17]: 75
- Plant response rating, Ragweed [10, 18]: 85
- Plant response rating, Ragweed [10, 19]: 90
- Ragweed plant response rating [10, 20]: 95
- Ragweed plant response rating [10, 21]: 85
- Ryegrass, Italian plant response rating [11, 14]: 60
- Plant response rating, Ryegrass, Italian [11, 15]: 85
- Plant response rating, Ryegrass, Italian [11, 16]: 85
- Plant response rating, Ryegrass, Italian [11, 17]: 55
- Plant response rating, Ryegrass, Italian [11, 18]: 50
- Plant response rating, Ryegrass, Italian [11, 19]: 80
- Ryegrass, Italian plant response rating [11, 20]: 90
- Ryegrass, Italian plant response rating [11, 21]: 80
- Soybean plant response rating (soybean (Glycine max); [14]): 0
- Plant response rating, Soybean (soybean (Glycine max); [15]): 10
- Plant response rating, Soybean (soybean (Glycine max); [16]): 5
- Plant response rating, Soybean (soybean (Glycine max); [17]): 0
- Plant response rating, Soybean (soybean (Glycine max); [18]): 0
- Plant response rating, Soybean (soybean (Glycine max); [19]): 0
- Soybean plant response rating (soybean (Glycine max); [20]): 0
- Soybean plant response rating (soybean (Glycine max); [21]): 10
- Velvetleaf plant response rating [12, 14]: 55
- Plant response rating, Velvetleaf [12, 15]: 85
- Plant response rating, Velvetleaf [12, 16]: 95
- Plant response rating, Velvetleaf [12, 17]: 15
- Plant response rating, Velvetleaf [12, 18]: 60
- Plant response rating, Velvetleaf [12, 19]: 70
- Velvetleaf plant response rating [12, 20]: 85
- Velvetleaf plant response rating [12, 21]: 75
- Waterhemp plant response rating [13, 14]: 98
- Plant response rating, Waterhemp [13, 15]: 90
- Plant response rating, Waterhemp [13, 16]: 100
- Plant response rating, Waterhemp [13, 17]: 85
- Plant response rating, Waterhemp [13, 18]: 90
- Plant response rating, Waterhemp [13, 19]: 100
- Waterhemp plant response rating [13, 20]: 100
- Waterhemp plant response rating [13, 21]: 90
